Assays:
[1] = system: MT2 cells; assay: cytotoxicity of test compound towards host (MT2) cells; assay type: cell-based; settings: at the levels of Example 5
Procedure: Serial dilutions of the test compounds (ranging from 0.1 μg/ml to 1.0 mg/ml) were added to HIV-1 virus such that 50 μl inoculum produced between 70 to 100 syncytia per well in untreated wells containing MT2 cells. The HIV-1 used was strain IIIs propagated in, and harvested from, a T4-lymphobastoid cell line. Each serial dilution of the test compound with virus was placed in each of three wells containing MT2 cells. The test compound alone was added to a fourth well containing MT2 cells to test for possible cytotoxicity. Triplicate virus control samples (no added test compounds but containing the equivalent amounts of the RPMI medium) were also included.

[2] = system: sheep testicular hyaluronidase; assay: hyaluronidase inhibition (hyaluronic acid hydrolysis); assay type: biochemical; settings: 10 minutes preincubation, pH 5.5; inactive = no inhibition at 1 mg/ml
Procedure: Hyaluronidase activity was quantitatively determined by measuring the extent of hyaluronic acid hydrolysis (i.e., the concentration of N-acetylglucosamine-reactive material formed from enzyme activity). Reaction mixtures (0.25 ml) containing the following were prepared: test compound (variable concentration); 0.1 M sodium acetate; 0.15 M sodium chloride; pH adjusted to 5.5; 7.2 units sheep testicular hyaluronidase (Sigma, Type III; H-2251) contained in an acetate buffer; 0.3 mg/ml hyaluronic acid (Sigma, from bovine vitreous humor; H-7630). The enzyme was preincubated with the test agent (1 mg/ml for screening purposes) for 10 minutes before starting the reaction by the addition of hyaluronic acid. The enzyme reaction was determined using the method of Aronson and Davidson (J. Biol. Chem. 241 437-440 (1967)). The reaction mixture was incubated for 30 minutes at room temperature. The reaction product was determined calorimetrically with p-dimethylaminobenzaldehyde (Reissig et al., J. Biol. Chem. 217 959-966 (1965)) by measuring the absorbance at 545 nm.
The reversibility of the hyaluronidase was determined by evaluating enzyme activity at different levels of enzyme (Ackermann and Potter, Proc. Soc. Exp. Biol. Med. 72 1-9 (1949)).

[3] = system: Lactobacillus gasseri; assay: effect on normal vaginal flora (Lactobacillus gasseri growth); assay type: cell-based; settings: 0.5 mg/ml
Procedure: This example illustrates the effect of the inhibitory agents of this invention on the normal vaginal flora. Lactobacillus gasseri, which is found in normal vaginal flora, was obtained from the American Type Culture Collection (Rockville, Md.) and cultured under anaerobic conditions at 37° C. in the presence of the desired test agents. Control samples without added test agents were also run. Samples were collected at twenty minute intervals starting at 120 minutes after the start of incubation through 240 minutes. The absorbance at 550 nm was used to estimate the cell density and inhibitory effects. Nonoxynol-9 was also evaluated for comparison purposes.

[4] = system: vaginal/cervical epithelial and other cells; settings: cited from earlier work

In the case of Nonoxynol-9, the “cytotoxic towards the MT2 cells” value [1] is reported as “did show cytotoxic effects”, the IC50 hyaluronidase [2] is reported as “inactive” and the “inhibition of growth of Lactobacillus gasseri” value [3] is reported as “about 60%”. For the same substance, the “lowest concentration that can injure vaginal/cervical epithelial and other cells” value [4] was “about 0.0005%”.

Source: patent publication US5925621A, “Method for preventing sexually transmitted diseases” (priority 1997, dated 1999)
